We go through 29 compounds from ChEMBL document CHEMBL4418496, “Inhibitors of crl4 ubiquitin ligase and uses thereof” (2014).

Assay [1] deals with Cullin-4A (Mus musculus) (UniProt Q3TCH7). Nature of the assay: Inhibition of CUL4A in mouse MEF cells stably expressing FL FLAG-tagged DDB2 assessed as reduction in F-DDB2 degradation incubated for 2 hrs before irradiated with 10 J/m2 UV irradiation. The assay is classed as cell-based.
In assay [2] the target is Cullin-1 (Homo sapiens) (UniProt Q13616). The assay is described as follows: Inhibition of CUL1 in human U20S cells assessed as reduction in TNF-alpha-induced IkappaB-alpha degradation at 50 uM incubated for 2 hrs followed by TNFalpha stimulation for 15 mins by Western blotting analysis. The assay is classed as cell-based. (A western blot detects proteins with antibodies after separation by electrophoresis.)
Cullin-1 (Homo sapiens), sequence (Q13616 whole entry): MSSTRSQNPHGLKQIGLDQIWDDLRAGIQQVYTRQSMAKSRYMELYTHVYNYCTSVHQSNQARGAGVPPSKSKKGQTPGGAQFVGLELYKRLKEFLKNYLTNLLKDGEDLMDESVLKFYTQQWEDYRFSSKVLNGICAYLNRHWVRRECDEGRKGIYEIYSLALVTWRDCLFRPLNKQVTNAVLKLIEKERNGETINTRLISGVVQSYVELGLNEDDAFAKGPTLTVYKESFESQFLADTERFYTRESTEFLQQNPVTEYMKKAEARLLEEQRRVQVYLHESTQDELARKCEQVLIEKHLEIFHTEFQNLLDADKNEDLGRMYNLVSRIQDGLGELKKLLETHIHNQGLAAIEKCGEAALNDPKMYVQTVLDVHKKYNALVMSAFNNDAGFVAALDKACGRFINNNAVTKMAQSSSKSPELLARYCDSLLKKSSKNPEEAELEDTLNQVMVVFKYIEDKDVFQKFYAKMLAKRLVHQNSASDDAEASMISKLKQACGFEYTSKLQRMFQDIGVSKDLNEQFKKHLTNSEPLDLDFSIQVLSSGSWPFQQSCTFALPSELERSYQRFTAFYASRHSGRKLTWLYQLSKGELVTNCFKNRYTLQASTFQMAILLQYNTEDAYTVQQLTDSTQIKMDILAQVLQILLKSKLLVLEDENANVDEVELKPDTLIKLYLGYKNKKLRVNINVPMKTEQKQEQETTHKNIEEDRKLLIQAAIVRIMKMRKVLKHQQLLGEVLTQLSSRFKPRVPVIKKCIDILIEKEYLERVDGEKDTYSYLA

The target of assay [3] is T1, Cullin-4A (Homo sapiens, UniProt Q13619). Nature of the assay: Inhibition of CUL4A in human HCT116 cells assessed as promotion of UV-damaged DNA repair by measuring enhancement of 6,4-photoproducts removal pre-incubated for 2 hrs before UV-irradiation by ELISA. It counts as cell-based. A general note: An ELISA detects its analyte on a solid surface through an enzyme-linked reagent.
T1 sequence (Q13619 whole entry): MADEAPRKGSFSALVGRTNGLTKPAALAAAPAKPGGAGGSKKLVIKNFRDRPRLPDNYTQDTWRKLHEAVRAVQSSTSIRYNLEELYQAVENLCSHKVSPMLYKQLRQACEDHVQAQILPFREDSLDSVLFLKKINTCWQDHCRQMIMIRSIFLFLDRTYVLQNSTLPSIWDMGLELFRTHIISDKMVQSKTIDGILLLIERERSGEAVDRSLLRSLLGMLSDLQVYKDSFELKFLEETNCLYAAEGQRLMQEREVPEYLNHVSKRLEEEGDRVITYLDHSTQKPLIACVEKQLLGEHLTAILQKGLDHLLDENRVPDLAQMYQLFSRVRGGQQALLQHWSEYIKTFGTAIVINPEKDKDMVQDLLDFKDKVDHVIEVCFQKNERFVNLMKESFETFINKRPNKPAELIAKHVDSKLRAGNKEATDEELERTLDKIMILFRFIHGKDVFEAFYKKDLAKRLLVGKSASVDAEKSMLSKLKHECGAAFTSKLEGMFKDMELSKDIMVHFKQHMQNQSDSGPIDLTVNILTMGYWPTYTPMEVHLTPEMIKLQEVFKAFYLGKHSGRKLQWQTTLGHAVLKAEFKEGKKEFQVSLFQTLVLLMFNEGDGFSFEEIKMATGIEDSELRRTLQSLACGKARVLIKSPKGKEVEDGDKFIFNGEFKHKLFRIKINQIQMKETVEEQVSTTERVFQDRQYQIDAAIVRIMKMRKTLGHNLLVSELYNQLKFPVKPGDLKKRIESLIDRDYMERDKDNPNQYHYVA

For assay [4], the target named is Cullin-4B (Homo sapiens) (UniProt Q13620). Nature of the assay: Inhibition of CUL4B in human MCF7 cells assessed as reduction in 3-methylcholanthrene-induced androgen receptor degradation at 50 uM. The assay is classed as cell-based.
Cullin-4B (Homo sapiens), sequence (Q13620 whole entry): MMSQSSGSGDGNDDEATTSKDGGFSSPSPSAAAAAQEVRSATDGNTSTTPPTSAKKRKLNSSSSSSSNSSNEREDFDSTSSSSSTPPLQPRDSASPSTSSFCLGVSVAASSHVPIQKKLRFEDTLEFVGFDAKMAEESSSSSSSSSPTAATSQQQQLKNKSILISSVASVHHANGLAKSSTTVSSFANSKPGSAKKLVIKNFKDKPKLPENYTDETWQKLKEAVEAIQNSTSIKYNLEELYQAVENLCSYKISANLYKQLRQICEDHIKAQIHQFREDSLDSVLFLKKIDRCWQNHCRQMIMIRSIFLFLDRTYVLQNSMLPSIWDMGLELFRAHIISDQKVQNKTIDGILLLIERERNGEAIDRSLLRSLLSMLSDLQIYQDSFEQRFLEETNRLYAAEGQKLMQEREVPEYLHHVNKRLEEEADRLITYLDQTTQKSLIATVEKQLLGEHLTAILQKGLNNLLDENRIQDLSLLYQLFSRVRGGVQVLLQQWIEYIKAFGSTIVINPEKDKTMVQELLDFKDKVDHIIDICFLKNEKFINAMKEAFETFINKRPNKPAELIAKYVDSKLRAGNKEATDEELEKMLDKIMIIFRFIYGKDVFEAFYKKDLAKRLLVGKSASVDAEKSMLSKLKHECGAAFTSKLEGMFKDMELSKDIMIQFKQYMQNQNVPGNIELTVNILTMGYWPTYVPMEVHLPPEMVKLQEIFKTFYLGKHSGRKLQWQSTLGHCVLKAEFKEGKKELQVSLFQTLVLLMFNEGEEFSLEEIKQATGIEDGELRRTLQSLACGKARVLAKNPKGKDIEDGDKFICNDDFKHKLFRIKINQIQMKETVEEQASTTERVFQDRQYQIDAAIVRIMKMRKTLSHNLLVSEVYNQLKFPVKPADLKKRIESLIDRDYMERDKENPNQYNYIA
Assay [5] addresses Cullin-4A (Mus musculus) (UniProt Q3TCH7). Nature of the assay: Inhibition of CUL4A in mouse MEF cells stably expressing FL FLAG-tagged DDB2 assessed as reduction in F-DDB2 degradation incubated for 2 hrs before irradiated with 10 J/m2 UV irradiation relative to control. The assay is classed as cell-based.
For assay [6], the target named is T1, Cullin-4A. Nature of the assay: Inhibition of GST-tagged CUL4A/Rbxl ubiquitin ligase activity (unknown origin) assessed as reduction in reconstituted DDB1 ubiquitination in presence of ubiquitin, El, E2 and DDB1 incubated for 1 hr by Western blotting analysis.
In assay [7] the test system is Proteasome. The assay is described as follows: Inhibition of proteasome in mouse MEF cells stably expressing FL FLAG-tagged DDB2 assessed as reduction in F-DDB2 degradation incubated for 2 hrs before irradiated with 10 J/m2 UV irradiation.

Active and inactive are the calls of the source. The calls are words filed in the database; no cut-off is given here. Where a SMILES comes first, the peptide text is derived from it. The star is where a group is joined. Cbz = O=C(OCc1ccccc1)* Where only a bound is given, the exact number is not on record here.

Cullin-4A (Mus musculus), sequence (Q3TCH7 whole entry): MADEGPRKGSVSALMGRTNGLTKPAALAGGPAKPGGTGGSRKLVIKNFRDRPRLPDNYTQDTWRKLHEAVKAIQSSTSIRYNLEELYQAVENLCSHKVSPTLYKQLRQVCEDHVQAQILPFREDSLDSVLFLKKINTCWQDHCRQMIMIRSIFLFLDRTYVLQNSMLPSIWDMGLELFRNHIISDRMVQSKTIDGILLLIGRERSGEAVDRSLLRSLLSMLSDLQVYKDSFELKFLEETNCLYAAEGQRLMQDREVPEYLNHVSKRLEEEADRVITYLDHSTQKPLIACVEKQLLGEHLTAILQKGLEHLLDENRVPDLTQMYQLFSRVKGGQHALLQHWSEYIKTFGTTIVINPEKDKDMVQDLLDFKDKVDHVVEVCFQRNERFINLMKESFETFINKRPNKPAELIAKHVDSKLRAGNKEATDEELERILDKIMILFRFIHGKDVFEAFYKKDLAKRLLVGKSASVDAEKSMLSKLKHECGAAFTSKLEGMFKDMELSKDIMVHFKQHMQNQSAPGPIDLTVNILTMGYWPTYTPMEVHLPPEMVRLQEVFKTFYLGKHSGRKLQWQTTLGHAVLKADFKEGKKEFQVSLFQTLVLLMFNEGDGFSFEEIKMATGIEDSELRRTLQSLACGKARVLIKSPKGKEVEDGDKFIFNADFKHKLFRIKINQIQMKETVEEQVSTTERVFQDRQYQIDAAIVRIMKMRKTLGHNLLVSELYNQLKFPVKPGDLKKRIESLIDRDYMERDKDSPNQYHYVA

For `N#Cc1c(S)nc2c(c1-c1ccco1)CCCC2`, the “inhibition (active/inactive call)” value in assay [1] was “Active”. Further, the inhibition entry in assay [2] and in assay [4] was “inactive” each time. Moreover, the inhibition entry in assay [3] is “Active”. Also, the inhibition entry in assay [5] was “Dose-dependent effect”.

In the case of `CC(=O)CN1C(=O)C(=O)c2cc(Br)ccc21`, the “inhibition (active/inactive call)” value in assay [1] is “Active”.

Turning to `O=[N+]([O-])c1c(Cl)ncnc1N1CCCCC1CO` (stereo not drawn), the “inhibition (active/inactive call)” value in assay [1] is “Active”.

Usually IC50 stands for the concentration that gives 50% inhibition. As to `COc1ccc(-c2c3c([nH]c(=S)c2C#N)CCC3)cc1`, the 50% inhibitory concentration (IC50) in assay [6] was found to be 0.997 µM.

`O=c1oc2c(Br)c(O)c(Br)cc2s1`: the “inhibition (active/inactive call)” value in assay [1] is “Active”. For the same compound, the inhibition result in assay [4] was “inactive”.

Take `N#CC1=C(N)SC(N)=C(C#N)C1c1ccc(C(F)(F)F)cc1`: the IC50 in assay [6] is above 50 µM.

As for `COc1ccc(-c2c3c([nH]c(=S)c2C#N)CCCC3)cc1`, the “inhibition (active/inactive call)” value in assay [1] is “Active”. For the same compound, the inhibition result in assay [2] and in assay [4] was “inactive” each time.

Take `COc1nsc(I)c1C#N`: the “inhibition (active/inactive call)” value in assay [1] is “Active”. The inhibition entry in assay [4] is “inactive”.

Consider `N#CC1=C(N)SC(N)=C(C#N)C1CCc1ccccc1`, for which the concentration for half-maximal inhibition (IC50) in assay [6] was determined as 3.68 µM.

For the compound `N#Cc1c(-c2ccco2)c2c([nH]c1=S)CCCC2`, the IC50 in assay [6] was determined as 0.554 µM.

As for `N#CC1=C(N)SC(N)=C(C#N)C1c1ccccc1F`, the “inhibition (active/inactive call)” value in assay [1] is “Active”. Moreover, the inhibition entry in assay [2] and in assay [4] was “inactive” each time. Also, the inhibition result in assay [3] is “Active”. For the same compound, the inhibition entry in assay [5] is “Dose-dependent effect”.

Take `CC(C)c1nnc(S)n1-c1ccc(Cl)c(Cl)c1`: in assay [1], the “inhibition (active/inactive call)” value is “Active”. In assay [4], the inhibition entry was “inactive”. In addition, the IC50 in assay [6] was below 0.24 µM.

As to `CCOC(=O)Oc1cc2oc(=O)sc2cc1Br`, the “inhibition (active/inactive call)” value in assay [1] was “Active”.

On to `N#Cc1c(-c2ccncc2)c2c([nH]c1=S)CCCC2`, for which the IC50 in assay [6] came out at 2.68 µM.

As for `CNC(=O)Oc1c(Br)cc2sc(=O)oc2c1Br`, in assay [6], the 50% inhibitory concentration (IC50) is below 0.24 µM.

In the case of `CCOC(=O)Oc1c(Cl)cc2oc(=O)sc2c1Cl`, the “inhibition (active/inactive call)” value in assay [1] is “Active”.

Turning to `N#CC1=C(N)SC(N)=C(C#N)C1c1ccco1`, the “inhibition (active/inactive call)” value in assay [1] was “Active”. Moreover, the inhibition result in assay [2] and in assay [4] was “inactive” each time.

For the compound `CCOC(=O)Oc1cc2oc(=O)sc2cc1Cl`, in assay [1], the “inhibition (active/inactive call)” value is “Active”.

Regarding `Sc1nnc(C2CC2)n1-c1ccc(Cl)c(Cl)c1`, the “inhibition (active/inactive call)” value in assay [1] is “Active”. Further, the inhibition entry in assay [4] was “inactive”. Also, the IC50 in assay [6] is 703 µM.

In the case of `CC(C)C[C@@H](C=O)NC(=O)[C@H](CC(C)C)NC(=O)[C@H](CC(C)C)NC(=O)OCc1ccccc1` (Cbz-Leu-Leu-Leu-aldehyde), the inhibition entry in assay [7] was “Active”.

For `COC(=O)c1sc(=S)n(-c2ccc(F)cc2F)c1N`, in assay [1], the “inhibition (active/inactive call)” value was “Active”.

As to `N#CC1=C(N)SC(N)=C(C#N)C1c1cc(Br)ccc1F`, the IC50 in assay [6] was found to be 690 µM.

On to `COc1ccc(-c2nnc(S)n2-c2ccc(C)cc2)cc1`, for which, in assay [1], the “inhibition (active/inactive call)” value is “Active”. Further, the inhibition entry in assay [4] is “inactive”. For the same compound, in assay [6], the IC50 was found to be 2.4 µM.

In the case of `N#CC1=C(N)SC(N)=C(C#N)C1c1cccs1`, the “inhibition (active/inactive call)” value in assay [1] was “Active”. The inhibition result in assay [2] and in assay [4] was “inactive” throughout.

As to `COc1ccc(-c2c(C#N)c(S)nc3c2CCC3)cc1`, in assay [1], the “inhibition (active/inactive call)” value is “Active”. The inhibition result in assay [2] and in assay [4] was “inactive” throughout.

For `COC(=O)Oc1c(Br)c(C)c2oc(=O)sc2c1Br`, the half-inhibitory concentration (IC50) in assay [6] was below 0.24 µM.

With `COC(=O)Oc1cc2oc(=O)sc2cc1Cl`, the “inhibition (active/inactive call)” value in assay [1] is “Active”.

As to `CC1(C)Cc2c(c(N3CCNCC3)[nH]c(=S)c2C#N)CO1`, the “inhibition (active/inactive call)” value in assay [1] is “Active”.

For `Clc1ccc2nc(Cl)c3nnnn3c2c1`, in assay [1], the “inhibition (active/inactive call)” value was “Active”.
